Patent US10457710B2, “Antimicrobial peptides, their variants and uses” (priority 2015, dated 2019)
Where a SMILES comes first, the peptide text is derived from it. [ ]: non-standard residue; d: D form.

Legend:
Assay type in all cases: cell-based
[1] = tested on: clinical strains of E. cloacae; experiment: MIC, microdilution, clinical strains; details: 0.02% BSA, 0.2% acetic acid
How it was run: (§1)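 Overnight MH agar colonies were suspended in MH broth to 5.0×10^5 cfu/ml, mixed with serial peptide dilutions (0.125–128 μg/ml) and incubated at 37° C for 20 to 24 hours. Yeast MICs were run the same way in potato dextrose broth, and wells were scored visually.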

[2] = tested on: clinical strains of S. aureus; experiment: MIC, microdilution, clinical strains; details: 0.02% BSA, 0.2% acetic acid
How it was run: as §1

[3] = tested on: clinical strains of Proteus mirabilis; experiment: MIC, microdilution, clinical strains; details: 0.02% BSA, 0.2% acetic acid
How it was run: as §1

[4] = tested on: clinical strains of P. aeruginosa; experiment: MIC, microdilution, clinical strains; details: 0.02% BSA, 0.2% acetic acid
How it was run: as §1

[5] = tested on: clinical strains of E. coli; experiment: MIC, microdilution, clinical strains; details: microdilution, Muller Hinton broth-cation adjusted, 0.02% BSA, 0.2% acetic acid
How it was run: as §1

[6] = tested on: clinical strains of K. pneumoniae; experiment: MIC, microdilution, clinical strains; details: 0.02% BSA, 0.2% acetic acid
How it was run: as §1

[7] = tested on: clinical strains of Serratia marcescens; experiment: MIC, microdilution, clinical strains; details: 0.02% BSA, 0.2% acetic acid
How it was run: as §1

[8] = tested on: clinical strains of S. pneumoniae; experiment: MIC, microdilution, clinical strains; details: 0.02% BSA, 0.2% acetic acid
How it was run: as §1

C. quillermondiae = experiment: MIC, clinical yeast strains; details: clinical yeast strain 1; D-form peptide; concentrations tested 0.125 to 128 μg/ml
How it was run: (§2)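 For A. johnsonii, Mueller Hinton broth; for the clinical yeasts, Potato dextrose broth. In both, 5.0×10^5 cfu/ml was exposed to peptide over 0.125–128 μg/ml for 20–24 h at 37 °C, and MIC was read as the lowest concentration showing no visual growth.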

[9] = tested on: clinical strains of Acinetobacter baumannii; experiment: MIC, microdilution, clinical strains; set-up: unit: μg/ml; details: 0.02% BSA, 0.2% acetic acid
Method: Minimum inhibition concetrations (MICs) were determined against Escherichia coli (ATCC 25922), Staphylococcus aureus (ATCC 25923), Klebsiella pneumoniae (ATCC 10031) and Pseudomonas aeruginosa (ATCC 27853). Also clinical strains of E. coli, K. pneumoniae, E. cloacae, P. aeruginosa, Serratia marcescens, Proteus mirabilis, S. pneumoniae, Acinetobacter baumannii, A. johnsonii and S. aureus were used for MICs assays. Additionally, clinical strains of yeast including Candida albicans, C. glabrata, C. parapsilosis and C. quillermondiae were used. The susceptibility of these microorganisms to Chain peptides were determined using micro broth dilution assay. Colonies of the respective microorganism from Muller Hinton (MH) agar plates incubated overnight were suspended in MH broth media and final concentration of microorganism was adjusted to 5.0×10^5 cfu/ml. An aliquot of 10 μl of each Chain peptide, or gentamicin, tetracycline as reference antibiotics were added in differing concentrations along with 90 μl of bacterial suspension to 96 well polypropylene plates and incubated at 37° C. for 20 to 24 hours. Concentrations of Chain peptides and reference antibiotics ranged from 0.125 to 128 μg/ml and the MICs were recorded as the lowest concentration with no visual growth of bacteria. Similarly, antifungal MICs were tested in Potato dextrose broth.
Clinical strains of yeasts including Candida albicans, C. glabrata, C. parapsilosis and C. quillermondiae were also tested with the 12 Chain peptides. The minimum inhibitory concentration (MICs) varied between these peptides and are presented in Tables 4a, 4b, 4c and 5a, 5b, 5c. Peptides Chain 105, 201 and 308 are broad spectrum antimicrobials with MICs between 0.5-32 μg/ml against all the bacteria and yeasts tested, except Serratia marcescens and Proteus mirabilis, against which the MICs were between 64-128 μg/ml. Peptide Chain 306 has narrow spectrum activity against E. coli at 1 μg/ml and for the rest of the bacterial strains at >32 μg/ml (FIG. 10c).

C. parapsilosis = experiment: MIC, clinical yeast strains; details: D-form peptide, concentrations tested 0.125 to 128 μg/ml
How it was run: as §2

C. glabrata = experiment: MIC, clinical yeast strains; details: D-form peptide, concentrations tested 0.125 to 128 μg/ml
How it was run: as §2

Candida albicans = experiment: MIC, clinical yeast strains; details: D-form peptide, concentrations tested 0.125 to 128 μg/ml
How it was run: as §2

For `CC[C@@H](C)[C@@H](NC(=O)[C@@H](CC(C)C)NC(=O)[C@@H](CCCNC(=N)N)NC(=O)[C@H](N)CCCNC(=N)N)C(=O)N[C@H](Cc1c[nH]c2ccccc12)C(=O)N[C@H](CCCNC(=N)N)C(=O)N[C@H](CCCNC(=N)N)C(=O)N[C@H](Cc1ccccc1)C(=O)N[C@H](CCCCN)C(=O)N[C@H](Cc1c[nH]c2ccccc12)C(=O)N[C@H](CC(C)C)C(=O)N[C@H](CCCNC(=N)N)C(=O)O` [Chain204D] (H-[dR][dR][dL][dI][dW][dR][dR][dF][dK][dW][dL][dR]-OH), the Minimum inhibitory concentration ([1]; Enterobacter cloacae strain 1, Muller Hinton broth-cation adjusted) was 4, the Minimum inhibitory concentration ([1]; Enterobacter cloacae strain 2, Muller Hinton broth-cation adjusted) was 8 and the Minimum inhibitory concentration ([1]; Enterobacter cloacae strain 3, Muller Hinton broth-cation adjusted) was 4. The Minimum inhibitory concentration ([1]; Enterobacter cloacae strain 4, Muller Hinton broth-cation adjusted) was 8, the Minimum inhibitory concentration ([1]; Enterobacter cloacae strain 5, Muller Hinton broth-cation adjusted) was 2 and the Minimum inhibitory concentration ([2]; Staphylococcus aureus strain 1, Muller Hinton broth-cation adjusted) was 1. For the same molecule, the Minimum inhibitory concentration ([2]; Staphylococcus aureus strain 2, Muller Hinton broth-cation adjusted) was 2, the Minimum inhibitory concentration ([2]; Staphylococcus aureus strain 3, Muller Hinton broth-cation adjusted) was 2 and the Minimum inhibitory concentration ([2]; Staphylococcus aureus strain 4, Muller Hinton broth-cation adjusted) was 1. The Minimum inhibitory concentration ([2]; Staphylococcus aureus strain 5, Muller Hinton broth-cation adjusted) was 1, the Minimum inhibitory concentration ([3]; Proteus mirabilis strain 1, Muller Hinton broth-cation adjusted) was >128 and the Minimum inhibitory concentration ([3]; Proteus mirabilis strain 2, Muller Hinton broth-cation adjusted) was 32. For the same molecule, the Minimum inhibitory concentration ([3]; Proteus mirabilis strain 3, Muller Hinton broth-cation adjusted) was 64, the Minimum inhibitory concentration ([3]; Proteus mirabilis strain 4, Muller Hinton broth-cation adjusted) was >128 and the Minimum inhibitory concentration ([3]; Proteus mirabilis strain 5, Muller Hinton broth-cation adjusted) was >128. For the same molecule, the Minimum inhibitory concentration ([4]; Pseudomonas aeruginosa strain 1, Muller Hinton broth-cation adjusted) was 4, the Minimum inhibitory concentration ([4]; Pseudomonas aeruginosa strain 2, Muller Hinton broth-cation adjusted) was 16 and the Minimum inhibitory concentration ([4]; Pseudomonas aeruginosa strain 3, Muller Hinton broth-cation adjusted) was 8. It also gave a Minimum inhibitory concentration ([4]; Pseudomonas aeruginosa strain 4, Muller Hinton broth-cation adjusted) of 8, a Minimum inhibitory concentration ([4]; Pseudomonas aeruginosa strain 5, Muller Hinton broth-cation adjusted) of 4 and a Minimum inhibitory concentration ([5]; Escherichia coli strain 1) of 8. It also gave a Minimum inhibitory concentration ([5]; Escherichia coli strain 2) of 1, a Minimum inhibitory concentration ([5]; Escherichia coli strain 3) of 1 and a Minimum inhibitory concentration ([5]; Escherichia coli strain 4) of 1. The Minimum inhibitory concentration ([5]; Escherichia coli strain 5) was 1, the Minimum inhibitory concentration ([6]; Klebsiella pneumoniae strain 1, Muller Hinton broth-cation adjusted) was 8 and the Minimum inhibitory concentration ([6]; Klebsiella pneumoniae strain 2, Muller Hinton broth-cation adjusted) was 4. It also gave a Minimum inhibitory concentration ([6]; Klebsiella pneumoniae strain 3, Muller Hinton broth-cation adjusted) of 16, a Minimum inhibitory concentration ([6]; Klebsiella pneumoniae strain 4, Muller Hinton broth-cation adjusted) of 4 and a Minimum inhibitory concentration ([6]; Klebsiella pneumoniae strain 5, Muller Hinton broth-cation adjusted) of 2. For the same molecule, the Minimum inhibitory concentration ([7]; Serratia marcescens strain 1, Muller Hinton broth-cation adjusted) was >128, the Minimum inhibitory concentration ([7]; Serratia marcescens strain 2, Muller Hinton broth-cation adjusted) was >128 and the Minimum inhibitory concentration ([7]; Serratia marcescens strain 3, Muller Hinton broth-cation adjusted) was 128. The Minimum inhibitory concentration ([7]; Serratia marcescens strain 4, Muller Hinton broth-cation adjusted) was >128, the Minimum inhibitory concentration ([7]; Serratia marcescens strain 5, Muller Hinton broth-cation adjusted) was >128 and the Minimum inhibitory concentration ([8]; Streptococcus pneumoniae strain 1, Muller Hinton broth-cation adjusted) was 4. For the same molecule, the Minimum inhibitory concentration ([8]; Streptococcus pneumoniae strain 2, Muller Hinton broth-cation adjusted) was 4, the Minimum inhibitory concentration ([8]; Streptococcus pneumoniae strain 3, Muller Hinton broth-cation adjusted) was 4 and the Minimum inhibitory concentration ([8]; Streptococcus pneumoniae strain 4, Muller Hinton broth-cation adjusted) was 4. The Minimum inhibitory concentration ([8]; Streptococcus pneumoniae strain 5, Muller Hinton broth-cation adjusted) was 4, the “Minimum inhibitory concentration, C. quillermondiae strain 1” value (C. quillermondiae) was 4 and the Minimum inhibitory concentration ([9]; Acinetobacter baumannii strain 1, Muller Hinton broth-cation adjusted) was 4. It also gave a Minimum inhibitory concentration ([9]; Acinetobacter baumannii strain 2, Muller Hinton broth-cation adjusted) of 4, a Minimum inhibitory concentration ([9]; Acinetobacter baumannii strain 3, Muller Hinton broth-cation adjusted) of 4 and a Minimum inhibitory concentration ([9]; Acinetobacter baumannii strain 4, Muller Hinton broth-cation adjusted) of 4. For the same molecule, the Minimum inhibitory concentration ([9]; Acinetobacter baumannii strain 5, Muller Hinton broth-cation adjusted) was 4, the “Minimum inhibitory concentration, C. parapsilosis strain 1” value (C. parapsilosis; clinical yeast strain 1) was 4 and the “Minimum inhibitory concentration, C. parapsilosis strain 2” value (C. parapsilosis; clinical yeast strain 2) was 4. For the same molecule, the “Minimum inhibitory concentration, C. parapsilosis strain 3” value (C. parapsilosis; clinical yeast strain 3) was 8, the “Minimum inhibitory concentration, C. parapsilosis strain 4” value (C. parapsilosis; clinical yeast strain 4) was 8 and the “Minimum inhibitory concentration, C. glabrata strain 1” value (C. glabrata; clinical yeast strain 1) was 4. The “Minimum inhibitory concentration, C. glabrata strain 2” value (C. glabrata; clinical yeast strain 2) was 8, the “Minimum inhibitory concentration, C. glabrata strain 3” value (C. glabrata; clinical yeast strain 3) was 32 and the “Minimum inhibitory concentration, C. glabrata strain 4” value (C. glabrata; clinical yeast strain 4) was 32. The “Minimum inhibitory concentration, Candida albicans strain 1” value (Candida albicans; clinical yeast strain 1) was 8, the “Minimum inhibitory concentration, Candida albicans strain 2” value (Candida albicans; clinical yeast strain 2) was 8 and the “Minimum inhibitory concentration, Candida albicans strain 3” value (Candida albicans; clinical yeast strain 3) was 8. For the same molecule, the “Minimum inhibitory concentration, Candida albicans strain 4” value (Candida albicans; clinical yeast strain 4) was 8 and the “Minimum inhibitory concentration, Candida albicans strain 5” value (Candida albicans; clinical yeast strain 5) was 8.
